Assay results: publication PMC11489226 (Archives of Toxicology, 2024)

Biological target: T1, CYP2C8 (Homo sapiens, UniProt P10632)
T1 construct: V5-His (vector-encoded) (C); expressed in transfected cells
T1 sequence (P10632 1-490): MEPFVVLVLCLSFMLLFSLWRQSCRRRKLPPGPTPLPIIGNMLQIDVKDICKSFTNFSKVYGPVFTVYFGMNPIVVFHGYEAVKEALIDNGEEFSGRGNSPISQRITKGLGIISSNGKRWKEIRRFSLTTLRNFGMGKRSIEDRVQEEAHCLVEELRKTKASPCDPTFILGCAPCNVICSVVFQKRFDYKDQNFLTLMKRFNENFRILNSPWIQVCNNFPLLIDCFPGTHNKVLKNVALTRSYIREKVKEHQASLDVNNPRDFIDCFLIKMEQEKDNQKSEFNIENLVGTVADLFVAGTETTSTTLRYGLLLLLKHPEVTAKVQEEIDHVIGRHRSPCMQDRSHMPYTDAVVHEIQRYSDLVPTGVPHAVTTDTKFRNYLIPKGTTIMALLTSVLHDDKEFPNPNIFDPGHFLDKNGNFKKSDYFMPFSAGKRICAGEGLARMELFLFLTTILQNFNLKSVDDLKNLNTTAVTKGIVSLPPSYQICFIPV
Assay: Metabolism in transgenic HEK293 cells expressing CYP2C8
Format: in vitro ADME
Conditions: 20 µM parent PCB, 24 h, supernatant
Description: For the generation of transgenic cell lines, we used semi-adherent HEK293 cells (DSMZ, ACC305, human embryonic kidney cells) which were cultured on a daily basis in DMEM medium supplemented with 10% (FCS) and 1% penicillin/streptomycin. In a first step CYP1A2, CYP2C8, CYP2C9, CYP3A4, CYP2A6, and CYP2E1 cDNA were cloned into the plasmid pcDNATM3.1/V5-His TOPO® using human liver RNA as a template and using the following primers: CYP1A2 for5′-[…]-3′, CYP1A2 rev 5′-[…]-3′; CYP2C8 for 5′-[…]-3′, CYP2C8 rev 5′-[…]-3′; CYP2C9 for 5′-[…]-3′, CYP2C9 rev 5′-[…]-3′; CYP3A4 for 5′-[…]-3′, CYP3A4 rev 5′-[…]-3′, CYP2A6 for 5′-[…]-3′, CYP2A6 rev 5′-[…]-3′; CYP2E1 for 5′-[…]-3′, CYP2E1 rev 5′-[…]-3′. Final constructs were verified with Sanger DNA sequencing and restriction digestion. For transfection, 3 × 10^6 HEK293 cells were pre-incubated in a 10 cm dish in DMEM medium with 10% FCS, but without antibiotics, for 18 to 24 h. When the cells reached approximately 70% confluency, they were transfected using TransIT-LT1 transfection reagent (Biozol, Eiching, Germany). The TransIT-LT1 reagent was warmed to room temperature and vortexed. 1.63 mL Opti-MEM, 16.25 µL plasmid DNA (1 µg/µL), and 48.75 µL TransIT-LT1 reagent were mixed and incubated for 15 to 30 min. The mixture was then added dropwise to the medium of the cells, and the cells were incubated again at 37 °C and 5% CO2. After 24 h, the medium was replaced with standard medium and geneticin was added for selection (1 mg/mL). Cells were selected for 6–8 weeks in bulk culture, and single cell clones were obtained subsequently by limiting dilution. Each clone was checked for insertion by PCR using genomic DNA as a template.
Parallel samples were run without the addition of PCBs. At a confluence of 80%, PCBs (20 μM each, dissolved in ethanol) were added and cells were incubated for 24 h before harvest of supernatants. Supernatants were diluted 1:2 with 80 μL acetate buffer 0.1 M (pH = 5.3). 100 μL of this dilution were further incubated with 100 μL of ammonium acetate buffer 0.1 M (pH = 5.3) and 5 μL of β-Glucuronidase/Arylsulfatase enzyme overnight in a drying oven at 37 °C for enzymatic hydrolysis to release conjugated compounds. 50 μL of a mix of internal standards (10 ng/mL) and 600 μL of methanol were added to the samples, then mixed by vortexing for 1 min and centrifuged for 10 min at 3400g. The individual supernatants were transferred to glass LC vials and evaporated to approximately 50 μL at 45 °C under a gentle stream of nitrogen. Finally, 0.1 mol/ L ammonium acetate buffer was added to a final volume of 100 μL and then transferred to an insert for analysis. […]

Measured: Quantification of metabolites generated from PCB28, 52, and 101

Oc1cc(-c2ccc(Cl)cc2)c(Cl)cc1Cl [5-OHCB28, 2,4,4′-trichloro-5-biphenylol]
<LOQ: CYP2C8 Clone A3 | CYP2C8 Clone D8 | CYP2C8 Clone D9

Oc1cc(Cl)c(-c2ccc(Cl)cc2)cc1Cl [4-OHCB31, 2,4′,5-trichloro-4-biphenylol]
<LOQ: CYP2C8 Clone A3 | CYP2C8 Clone D8 | CYP2C8 Clone D9
